Test results: patent US12031150B2, “Methods, compositions and kits for increasing genome editing efficiency” (Vertex Pharmaceuticals Incorporated, priority 2016, dated 2024)
Values joined by “and” are separate entries in the source; they are usually repeats but may differ in a detail not shown here. Identical values can stand only once. “Also recorded” adds a separate entry of the source.

Experiments:
[1] = test system: HDR repair pathway in the HEK293-EGIP cell line; experiment: Traffic light reporter (TLR) assay, HDR efficiency by FACS (GFP positive cells); format: cell-based, human; details: for increase in the amount of CRISPR-genome edited HEK-EGIP cells: 2.5 μM, 24 hours, in comparison to the gRNA-Cas9 and donor template condition only, FIG. 2A; for GFP positive cells: flow cytometry 10 days post transfection, 10 μM, FIG. 4
[2] = test system: HDR efficiency in HEK-293 EGIP cells; experiment: PCR genotyping and gel densitometry quantification of HDR efficiency; format: cell-based, human; details: HEK293-EGIP cells nucleofected with donor template and Cas9-sgRNA; for HDR Editing Efficiency, replicate 1 hdr 1 / HDR Editing Efficiency, replicate 2 hdr 2 / HDR Editing Efficiency, replicate 3 hdr 3 / HDR Editing Efficiency, replicate 4 hdr 4: PCR band densitometry; for HDR Editing Efficiency, Average: average of replicates 1-4
Source text: Genomic DNA isolation, PCR Genotyping, and Gel Quantification: Specially designed PCR primer pairs provided another means to assess HDR-mediated genome editing to obtain functional eGFP positive cells. The genotyping PCR primer pair is shown below, corresponding to SEQ ID NOs: 6 and 7. A 219 bp PCR product corresponds to unmodified cells and a 163 bp nucleotide corresponds to modification through HDR. Intensity of these bands on a >2.5% gel allows for estimation of HDR by densitometry using a Bio-Imager. The technique allows for the relative ranking of improvement of HDR by inhibitors. Intensities measured for each lane were normalized by calculating the ratios of PCR bands corresponding to ‘insertions’ divided by ‘total’ (inserted and unmodified). The fold-change was calculated by comparing the ratio of insertions with compound over that without compound.
Another series of experiments compared increase in HDR efficiency following contact with either Scr7 or Compound 1, a DNAPK inhibitor. For these experiments, HEK293-EGIP cells were nucleofected with donor template only or donor template and Cas9-sgRNA. To test the ability of Scr7 and Compound 1 to enhance HDR editing, cells that had been nucleofected with either donor template alone, or donor template and Cas9-sgRNA were administered either Scr7 or Compound 1.
HDR recombination status was ascertained by traditional “end-point” PCR primer genotyping and quantitation based on agarose band intensities. The primers produced distinct amplicons: a 219 bp nucleotide band corresponded to unmodified cells and a 163 bp nucleotide product for HDR event. Intensity of these bands on a >2.5% gel allows for estimation of HDR by densitometry using a Bio-Imager. The technique allows for the relative ranking of conditions for improvement of HDR by inhibitors of NHEJ. The genotyping PCR primer pairs for these assays is shown below.

[3] = test system: HDR repair pathway in the HEK293-EGIP cell line; experiment: Traffic light reporter (TLR) assay, HDR efficiency by FACS (GFP positive cells); format: cell-based, human; details: for FACS Analysis - Percent HDR enhancement (gRNA-Cas9 + donor), Mean / FACS Analysis - Percent HDR enhancement (gRNA-Cas9 + donor), single replicate: 2.5 uM compound, HEK293-EGIP; for FACS Analysis - Percent HDR enhancement (gRNA-Cas9 + donor), Mean: mean of three technical replicates; for FACS Analysis - Percent HDR enhancement (gRNA-Cas9 + donor), single replicate: technical replicates 1-3 of one experiment; for fold increase in the amount of CRISPR-genome edited cells (HDR enhancement): compared to transfection in the absence of compound, Table 1, FIG. 2C; for GFP positive cells after transfection of donor repair template and gRNA-Cas9 (qualitative): FIG. 2A FACS dot plots
Source text: Traffic light reporter (TLR) assay: The HEK293-EGIP (Enhanced Green Fluorescent inhibited Protein) stable cell line was purchased from System Biosciences (SBI). The HEK293-EGIP cell line harbors a disrupted GPP coding sequence with a stop codon and a 53-bp genomic fragment from the AAVS1 locus. Cells were maintained in DMEM (Life Technologies, cat. no. 10313-039) with high glucose (Life Technologies, cat. no. 10313-039) supplemented with 10% heat-inactivated FBS (Fetal Bovine Serum, Expression Systems Inc.), Glutamax and Penicillin+Streptomycin and cultured at 37° C. and 5% CO2.
Cell transfection and NHEJ inhibitor treatment: The HEK293-EGIP stable cells were transfected with the two-in-one gRNA/CRISPR-Cas9 dual plasmid vector, plasmid repair donor (both plasmids from System Biosciences). Transfection was carried out using the Amaxa nucleofector system (Lonza) following manufacturer's protocol. After 16 hours, cells were treated with Compound 1 and Scr7 (Excess Bioscience; no. M60082-2s) at various concentrations, including 1 μM, 2.5 μM, 5 μM and 10 μM of compound. The structure of Scr7 is shown as follows:
Cell Sorting and Flow Cytometry: For flow cytometry analysis, HEK293 cells were trypsinized and resuspended in PBS/1% BSA FACS buffer and analyzed with a Fortessa flow cytometer (Becton Dickinson). A portion of cells were centrifuged and used for the isolation of genomic DNA.
Assays were performed to ascertain HDR efficiency in HEK293-EGIP cells. To this end, a bicistronic construct was used that targets the human AAVS1 locus (FIG. 1A). The bicistronic vector system co-expresses human codon optimized Cas9 driven by the EF1 promoter as well as custom guide RNA (gRNA) consisting of a chimeric crRNA-tracrRNA transcript driven by the Hl promoter. The hspCas9 contains two nuclear localization signals (NLS) at the N-terminus and C-terminus to ensure efficient import of the hspCas9 protein into the nucleus. The hspCas9 open reading frame (ORF) is followed by a regulatory element called WPRE (Woodchuck virus post-transcriptional regulatory element) to boost gene expression and stabilize the mRNA transcript.
The engineered human cell line, EGIP HEK293 was used to monitor HDR efficiency using the bicistronic construct described above and in FIG. 1A. The EGIP HEK293 reporter cell line was purchased from SBI. The HEK293-EGIP cell line harbors a disrupted GFP coding sequence with a stop codon and a 53-bp genomic fragment from the AAVS1 locus. The stable line was generated by lentiviral infection of 293T cells with an EF1alpha promoter to drive the expression of eGFP followed by puromycin selection. The eGFP sequence was modified to insert a 56 nucleotide insert (uppercase) from the human AAVS1 safe harbor site. This sequence contains a stop codon (TAA in red) after amino acid T109 in the eGFP translated sequence. The guide sequences targeted are in bold letters. Upon transfection with the guide and donor, the AAVS1 site within the broken eGFP was cut and the donor construct provided a homologous sequence to repair the eGFP, by removing the stop codon and the AAVS1 insert. Edited cells which had undergone HDR donor repair will generate GFP positive cells. Accordingly, co-transfecting Cas9, gRNA targeting AAVS1 and a AAVS1/EGFP rescue donor restored the sequence by HDR to give GFP+ cells.
The population of GFP positive cells was directly proportional with the efficiency of the homology directed repair (FIG. 1B).
For these assays, two-in-one Cas9-sgRNAs and eGFP donor template vectors were introduced into the HEK293 EGIP cells by electroporation using the Amaxa nucleofector (Lonza) to drive the synthesis of Cas9-sgRNAs and the eGFP donor template. Compounds were added 16 h post transfection followed by media change 48 hours later. Cells were then allowed to propagate for an additional 72 hours before FACS analysis. […]

[4] = test system: Serpin A1 gene in Huh7 hepato cellular carcinoma cells; experiment: SerpinA1 gene editing assay (KpnI site introduction, PCR and Kpn digest); format: cell-based; details: Huh7 cells nucleofected with gRNA, Cas9 protein, donor repair template; 2.5 pM Compound 1 for three days; vs DMSO; FIG. 5
Experimental: Assays were performed to ascertain the ability of a DNAPK inhibitor to allow for the editing of a target gene. For these assays, the editing of the Serpin A1 gene from M to Z form was assessed. To this end, Huh7 hepato cellular carcinoma cells were nucleofected with gRNA and Cas9 protein, with or without a donor repair template in which a KpnI site was introduced. The nucleofected cells were then cultured in the presence of DMSO or 2.5 pM Compound 1 for three days, following which, the genomic DNA was amplified and assessed for the introduction of the Kpn site.
The assay works as follows: when the SerpinA1 gene is edited, Kpn endonuclease is able to digest the gene fragment, resulting in the appearance of a digested band on a gel only when the SerpinA1 gene is edited. Conversely, when the SerpinA1 is not edited, the Kpn endonuclease is not able cut the gene fragment, and thus there will not be an appearance of a new, digested band on a gel.

Structure (SMILES) | increase in the amount of CRISPR-genome edited HEK-EGIP cells [1] | HDR Editing Efficiency, replicate 1 hdr 1 [2] | HDR Editing Efficiency, replicate 2 hdr 2 [2] | HDR Editing Efficiency, replicate 3 hdr 3 [2] | HDR Editing Efficiency, replicate 4 hdr 4 [2] | HDR Editing Efficiency, Average [2] | FACS Analysis - Percent HDR enhancement (gRNA-Cas9 + donor), Mean [3] | FACS Analysis - Percent HDR enhancement (gRNA-Cas9 + donor), single replicate [3] | fold increase in the amount of CRISPR-genome edited cells (HDR enhancement) ([3]; 2.5 μM) | fold better HDR enhancement compared to transfection with Scr7 ([3]; 2.5 μM, two separate experiments in triplicates, FIGS. 2B and 2C) | GFP positive cells after transfection of donor repair template and gRNA-Cas9 (qualitative) [3] | gene editing of the SerpinA1 gene (introduction of Kpn site, digested band on gel) [4] | GFP positive cells [1] | fold increase in HDR enhancement compared to SCR7 ([3]; 10 μM Compound 3, experiments in triplicates, compared to transfection in the presence of SCR7)
CNC(=O)c1ccnc2c([C@H](C)CNc3cc(-c4cnc(C)nc4)ncn3)cccc12 [Compound 1, (5)-N-methyl-8-(1-((2′-methyl-[4,5′-bipyrimidin]-6-yl)amino)propan-2-yl)quinoline-4-carboxamide] | approximately 83% | 8.4 and 4.3 and 4.9 | 29 and 27.4 (2×) | 27.5 and 58.3 and 29.8 | 27.6 and 40 and 25.1 | 23.125 and 32.5 and 21.8 | 0.64% | 0.44% and 6.82% and 0.65% | ~4.5 fold | 2 fold | increase in GFP positive cells | allowed for gene editing in comparison to the DMSO condition; also recorded: resulted in gene editing of the SerpinA1 gene |  | 
CNC(=O)c1ccnc2c([C@H](C)CNc3cc(-c4ccc(C)nc4)ncn3)cccc12 [Compound 3] |  |  |  |  |  |  |  |  |  |  |  |  | 4% | about 8 fold
Oc1nc(S)nc(/N=C/c2ccccc2)c1/N=C/c1ccccc1 [Scr7, reference compound] | approximately 30% | 1.3 and 14.1 and 5.8 | 18.2 and 22.7 and 21.8 | 16.6 and 20.2 and 21.3 | 16.4 and 28.1 and 23 | 13.125 and 21.275 and 17.975 | 0.32% | 0.16% and 0.62% and 0.19% | ~2.3 fold |  | increase in GFP positive cells |  | about 0.5% | 
